Molecular target: ERα (Homo sapiens (Human), UniProt P03372)
Test: Estrogen receptor degradation activity: breast cancer cell ERα in cell western assay
Type: cell-based
Settings: MCF7 cells; for % Degradation At 0.3 μM: 4 hours, normalised to fulvestrant 0.1 μM and DMSO; for IC50 / DC50: 4 hours post compound addition, concentration which degrades 50% of the estrogen receptor; for DC50: read-out: Degradation IC50
Procedure: Said test involves measuring the in vitro degradation activity of the compounds of the Table 1a.
The measurements of the degradation activities were made using a breast cancer cell ERα in cell western assay as described hereunder.
MCF7 cells (ATCC) were seeded in 384 wells microplate (collagen coated) at a concentration of 10000 cells/30 μL per well in red phenol free MEM alpha medium (invitrogen) containing 5% charcoal dextran striped FBS. The following day, 9 points serial 1:5 dilution of each compound was added to the cells in 2.5 μL at final concentrations ranging from 0.3-0.0000018 μM (in table 2), or 0.1 μM for fulvestrant (using as positive control). At 4 hours post compound addition the cells were fixed by adding 25 μL of formalin (final concentration 5% formalin containing 0.1% triton) for 10 minutes at room temperature and then washed twice with PBS. Then, 50 μL of LI-COR blocking buffer containing 0.1% Triton was added to plate for 30 minutes at room temperature. LI-COR blocking buffer was removed and cells were incubated overnight at cold room with 50 μL anti-ER rabbit monoclonal antibody (Thermo scientific MA1-39540) diluted at 1:1000 in LI-COR blocking buffer containing 0.1% tween-20. Wells which were treated with blocking buffer but no antibody were used as background control. Wells were washed twice with PBS (0.1% tween-20) and incubated at 37° C. for 60 minutes in LI-COR (0.1% tween-20) containing goat anti-rabbit antibody Alexa 488 (1:1000) and Syto-64 a DNA dye (2 μM final concentration). Cells were then washed 3 times in PBS and scanned in ACUMEN explorer (TTP-Labtech). Integrated intensities in the green fluorescence and red fluorescence were measured to determine the levels of ERα and DNA respectively.
The degradation activity with respect to estrogen receptors in this test is given by the concentration which degrades 50% of the estrogen receptor (or IC50) in nM.
The % of ERα levels decrease were determined as follows: % inhibition=100*(1−(sample−fulvestrant:DMSO−fulvestrant)).

Chain of ERα (P03372 whole entry): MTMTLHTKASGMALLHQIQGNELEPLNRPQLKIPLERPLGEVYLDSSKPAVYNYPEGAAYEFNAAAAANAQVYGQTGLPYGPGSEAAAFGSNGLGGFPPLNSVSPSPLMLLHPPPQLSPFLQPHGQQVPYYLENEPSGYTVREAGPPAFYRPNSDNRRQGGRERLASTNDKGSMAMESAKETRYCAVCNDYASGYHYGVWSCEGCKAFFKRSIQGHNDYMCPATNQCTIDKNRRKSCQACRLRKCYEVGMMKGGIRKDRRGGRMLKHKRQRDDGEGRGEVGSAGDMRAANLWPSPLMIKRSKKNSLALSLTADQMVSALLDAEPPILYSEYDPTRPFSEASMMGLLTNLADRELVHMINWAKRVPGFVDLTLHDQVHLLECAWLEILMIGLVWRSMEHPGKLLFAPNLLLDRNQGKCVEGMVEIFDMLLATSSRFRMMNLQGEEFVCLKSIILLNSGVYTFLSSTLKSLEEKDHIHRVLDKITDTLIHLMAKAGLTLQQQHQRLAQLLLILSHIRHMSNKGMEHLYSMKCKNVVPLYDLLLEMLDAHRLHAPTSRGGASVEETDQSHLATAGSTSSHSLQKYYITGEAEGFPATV

% Degradation At 0.3 μM [%] | IC50 [nM] | DC50 [nM] | SMILES
93 | 0.6 |  | COc1cccc(C2=C(c3ccc(C=C4CN(CCCF)C4)cc3)c3ccc(C(=O)O)cc3CCC2)c1C(F)F [Compound 60, 8-(2-(difluoromethyl)-3-methoxyphenyl)-9-(4-((1-(3-fluoropropyl)azetidin-3-ylidene)methyl)phenyl)-6,7-dihydro-5H-benzo[7]annulene-3-carboxylic acid]
93 | 0.5 |  | COc1ccc(C(F)(F)F)c(C2=C(c3ccc(C=C4CN(CCCF)C4)cc3)c3ccc(C(=O)O)cc3CCC2)c1 [Compound 47, 9-(4-((1-(3-fluoropropyl)azetidin-3-ylidene)methyl)phenyl)-8-(5-methoxy-2-(trifluoromethyl)phenyl)-6,7-dihydro-5H-benzo[7]annulene-3-carboxylic acid]
92 |  | 0.2 | O=C(O)c1ccc2c(c1)CCCC(C1CC13CCC3)=C2c1ccc(C=C2CN(CCCF)C2)cc1 (single isomer, unassigned) [Compound 36, 9-(4-((1-(3-fluoropropyl)azetidin-3-ylidene)methyl)phenyl)-8-(spiro[2.3]hexan-1-yl)-6,7-dihydro-5H-benzo[7]annulene-3-carboxylic acid]
91 | 0.7 |  | COc1cccc(C2=C(c3ccc(C=C4CN(CCCF)C4)cc3)c3ccc(C(=O)O)cc3CCC2)c1C [Compound 41, 9-(4-((1-(3-fluoropropyl)azetidin-3-ylidene)methyl)phenyl)-8-(3-methoxy-2-methylphenyl)-6,7-dihydro-5H-benzo[7]annulene-3-carboxylic acid]
91 | 0.5 |  | Cc1ccc(C2=C(c3ccc(C=C4CN(CCCF)C4)cc3)c3ccc(C(=O)O)cc3CCC2)c(C(F)F)c1 [Compound 43, 8-(2-(difluoromethyl)-4-methylphenyl)-9-(4-((1-(3-fluoropropyl)azetidin-3-ylidene)methyl)phenyl)-6,7-dihydro-5H-benzo[7]annulene-3-carboxylic acid]
92 | 0.7 |  | C[C@H]1CC[C@H](C2=C(c3ccc(C=C4CN(CCCF)C4)cc3)c3ccc(C(=O)O)cc3CCC2)CC1 [Compound 56, 9-(4-((1-(3-fluoropropyl)azetidin-3-ylidene)methyl)phenyl)-8-(trans-4-methylcyclohexyl)-6,7-dihydro-5H-benzo[7]annulene-3-carboxylic acid]
91 | 1.2 |  | Cc1cc(C2=C(c3ccc(C=C4CN(CCCF)C4)cc3)c3ccc(C(=O)O)cc3CCC2)ccc1C(F)(F)F [Compound 53, 9-(4-((1-(3-fluoropropyl)azetidin-3-ylidene)methyl)phenyl)-8-(3-methyl-4-(trifluoromethyl)phenyl)-6,7-dihydro-5H-benzo[7]annulene-3-carboxylic acid]
91 | 0.5 |  | CCc1c(Cl)cccc1C1=C(c2ccc(C=C3CN(CCCF)C3)cc2)c2ccc(C(=O)O)cc2CCC1 [Compound 46, 8-(3-chloro-2-ethylphenyl)-9-(4-((1-(3-fluoropropyl)azetidin-3-ylidene)methyl)phenyl)-6,7-dihydro-5H-benzo[7]annulene-3-carboxylic acid]

More lines, now with the values behind:

SMILES | % Degradation At 0.3 μM [%] | IC50 [nM] | DC50 [nM]
O=C(O)c1ccc2c(c1)CCCC(C1CC13CCC3)=C2c1ccc(C=C2CN(CCCF)C2)cc1 (single isomer, unassigned) [Compound 35, 9-(4-((1-(3-fluoropropyl)azetidin-3-ylidene)methyl)phenyl)-8-(spiro[2.3]hexan-1-yl)-6,7-dihydro-5H-benzo[7]annulene-3-carboxylic acid] | 91 |  | 0.3
COc1cccc(F)c1C1=C(c2ccc(C=C3CN(CCCF)C3)cc2)c2ccc(C(=O)O)cc2CCC1 [Compound 22, 8-(2-fluoro-6-methoxyphenyl)-9-(4-((1-(3-fluoropropyl)azetidin-3-ylidene)methyl)phenyl)-6,7-dihydro-5H-benzo[7]annulene-3-carboxylic acid] | 94 | 0.5 | 
O=C(O)c1ccc2c(c1)CCCC(c1c(Cl)cccc1OC(F)(F)F)=C2c1ccc(C=C2CN(CCCF)C2)cc1 [Compound 17, 8-(2-chloro-6-(trifluoromethoxy)phenyl)-9-(4-((1-(3-fluoropropyl)azetidin-3-ylidene)methyl)phenyl)-6,7-dihydro-5H-benzo[7]annulene-3-carboxylic acid] | 91 | 0.5 | 
O=C(O)c1ccc2c(c1)CCCC(c1cccc(Cl)c1OC(F)(F)F)=C2c1ccc(C=C2CN(CCCF)C2)cc1 [Compound 34, 8-(3-chloro-2-(trifluoromethoxy)phenyl)-9-(4-((1-(3-fluoropropyl)azetidin-3-ylidene)methyl)phenyl)-6,7-dihydro-5H-benzo[7]annulene-3-carboxylic acid] | 94 | 0.7 | 
CCc1c(C2=C(c3ccc(C=C4CN(CCCF)C4)cc3)c3ccc(C(=O)O)cc3CCC2)cccc1C(F)(F)F [Compound 5, 8-(2-ethyl-3-(trifluoromethyl)phenyl)-9-(4-((1-(3-fluoropropyl)azetidin-3-ylidene)methyl)phenyl)-6,7-dihydro-5H-benzo[7]annulene-3-carboxylic acid] | 93 | 0.3 | 
Cc1cccc(F)c1C1=C(c2ccc(C=C3CN(CCCF)C3)cc2)c2ccc(C(=O)O)cc2CCC1 [Compound 26, 8-(2-fluoro-6-methylphenyl)-9-(4-((1-(3-fluoropropyl)azetidin-3-ylidene)methyl)phenyl)-6,7-dihydro-5H-benzo[7]annulene-3-carboxylic acid] | 91 | 0.2 | 
COc1cccc(C)c1C1=C(c2ccc(C=C3CN(CCCF)C3)cc2)c2ccc(C(=O)O)cc2CCC1 [Compound 4, 9-(4-((1-(3-fluoropropyl)azetidin-3-ylidene)methyl)phenyl)-8-(2-methoxy-6-methylphenyl)-6,7-dihydro-5H-benzo[7]annulene-3-carboxylic acid] | 90 | 1.1 | 
O=C(O)c1ccc2c(c1)CCCC(c1cccc(F)c1OC(F)F)=C2c1ccc(C=C2CN(CCCF)C2)cc1 [Compound 33, 8-(2-(difluoromethoxy)-3-fluorophenyl)-9-(4-((1-(3-fluoropropyl)azetidin-3-ylidene)methyl)phenyl)-6,7-dihydro-5H-benzo[7]annulene-3-carboxylic acid] | 91 | 0.3 | 
Cc1ccc(C2=C(c3ccc(C=C4CN(CCCF)C4)cc3)c3ccc(C(=O)O)cc3CCC2)c(C)c1Cl [Compound 13, 8-(3-chloro-2,4-dimethylphenyl)-9-(4-((1-(3-fluoropropyl)azetidin-3-ylidene)methyl)phenyl)-6,7-dihydro-5H-benzo[7]annulene-3-carboxylic acid] | 91 | 0.4 | 
Cc1cc(C)c(C2=C(c3ccc(C=C4CN(CCCF)C4)cc3)c3ccc(C(=O)O)cc3CCC2)c(C)c1 [Compound 10, 9-(4-((1-(3-fluoropropyl)azetidin-3-ylidene)methyl)phenyl)-8-mesityl-6,7-dihydro-5H-benzo[7]annulene-3-carboxylic acid] | 93 | 0.5 | 
COc1cc(C2=C(c3ccc(C=C4CN(CCCF)C4)cc3)c3ccc(C(=O)O)cc3CCC2)ccc1C(F)F [Compound 31, 8-(4-(difluoromethyl)-3-methoxyphenyl)-9-(4-((1-(3-fluoropropyl)azetidin-3-ylidene)methyl)phenyl)-6,7-dihydro-5H-benzo[7]annulene-3-carboxylic acid] | 95 | 37.8 | 
O=C(O)c1ccc2c(c1)CCCC(c1c(Cl)cccc1C(F)(F)F)=C2c1ccc(C=C2CN(CCCF)C2)cc1 [Compound 16, 8-(2-chloro-6-(trifluoromethyl)phenyl)-9-(4-((1-(3-fluoropropyl)azetidin-3-ylidene)methyl)phenyl)-6,7-dihydro-5H-benzo[7]annulene-3-carboxylic acid] | 92 | 0.3 | 
Cc1cccc(C2=C(c3ccc(C=C4CN(CCCF)C4)cc3)c3ccc(C(=O)O)cc3CCC2)c1C(F)F [Compound 30, 8-(2-(difluoromethyl)-3-methylphenyl)-9-(4-((1-(3-fluoropropyl)azetidin-3-ylidene)methyl)phenyl)-6,7-dihydro-5H-benzo[7]annulene-3-carboxylic acid] | 91 | 0.4 | 

Source: patent publication US20250255848A1, “SUBSTITUTED 6,7-DIHYDRO-5H-BENZO[7]ANNULENE DERIVATIVES, PROCESSES FOR THEIR PREPARATION AND THERAPEUTIC USES THEREOF” (SANOFI, priority 2022, published 2025)
